# Data from US8853203B2, “Diazepinone derivatives” (Novartis AG, priority 2012, dated 2014).
# Tests used:
# human mGluR1 = human mGluR1 (Homo sapiens (Human), UniProt Q13255); experiment: mGluR1 antagonism, L-glutamate induced intracellular calcium increase (FLIPR) in CHO cells stably expressing human mGluR1; assay type: cell-based; conditions: L-glutamate induced intracellular calcium, CHO cells expressing human mGluR1, FLIPR
# Text: Activity of compounds of the present invention with respect to mGluR1 antagonism was examined by an assay based on measurements of L-glutamate induced intracellular calcium increases using a 96 well plate-based Fluorometric Imaging Plate Reader (FLIPR), and CHO cells stably expressing human mGluR1. L-glutamate induced robust calcium responses via human mGluR1 in a concentration-dependent manner and in the low micromolar range. The table below represents IC50 values of the inhibition of the glutamate-induced elevation of the intracellular calcium concentration.
# human mGluR5a receptors = human mGluR5a receptors (Homo sapiens (Human), UniProt P41594); experiment: inhibition of glutamate-induced elevation of intracellular calcium in L(tk-) cells expressing human mGluR5a; assay type: cell-based; conditions: for IC50: glutamate-induced intracellular calcium elevation, L(tk-) cells expressing human mGluR5a, read-out: mGluR5 IC50; for inhibition at 10 µM: LTK, read-out: mGluR5 % inhibition at 10 μM
# Text: Activity of compounds of the present invention was examined by determination to what extent the glutamate-induced elevation of the intracellular calcium concentration in L(tk-) cells expressing human mGluR5a receptors (see L. P. Daggett et al., Neuropharm. Vol. 34, pages 871-886, 1995) is inhibited by utilizing methods as described e.g. by L. P. Daggett et al., Neuropharm. Vol. 34, pages 871-886 (1995) and P. J. Flor et al., J. Neurochem. Vol. 67, pages 58-63 (1996).
# human mGluR5a receptors, sequence (P41594 other isoform, or with tags, fused parts or gaps): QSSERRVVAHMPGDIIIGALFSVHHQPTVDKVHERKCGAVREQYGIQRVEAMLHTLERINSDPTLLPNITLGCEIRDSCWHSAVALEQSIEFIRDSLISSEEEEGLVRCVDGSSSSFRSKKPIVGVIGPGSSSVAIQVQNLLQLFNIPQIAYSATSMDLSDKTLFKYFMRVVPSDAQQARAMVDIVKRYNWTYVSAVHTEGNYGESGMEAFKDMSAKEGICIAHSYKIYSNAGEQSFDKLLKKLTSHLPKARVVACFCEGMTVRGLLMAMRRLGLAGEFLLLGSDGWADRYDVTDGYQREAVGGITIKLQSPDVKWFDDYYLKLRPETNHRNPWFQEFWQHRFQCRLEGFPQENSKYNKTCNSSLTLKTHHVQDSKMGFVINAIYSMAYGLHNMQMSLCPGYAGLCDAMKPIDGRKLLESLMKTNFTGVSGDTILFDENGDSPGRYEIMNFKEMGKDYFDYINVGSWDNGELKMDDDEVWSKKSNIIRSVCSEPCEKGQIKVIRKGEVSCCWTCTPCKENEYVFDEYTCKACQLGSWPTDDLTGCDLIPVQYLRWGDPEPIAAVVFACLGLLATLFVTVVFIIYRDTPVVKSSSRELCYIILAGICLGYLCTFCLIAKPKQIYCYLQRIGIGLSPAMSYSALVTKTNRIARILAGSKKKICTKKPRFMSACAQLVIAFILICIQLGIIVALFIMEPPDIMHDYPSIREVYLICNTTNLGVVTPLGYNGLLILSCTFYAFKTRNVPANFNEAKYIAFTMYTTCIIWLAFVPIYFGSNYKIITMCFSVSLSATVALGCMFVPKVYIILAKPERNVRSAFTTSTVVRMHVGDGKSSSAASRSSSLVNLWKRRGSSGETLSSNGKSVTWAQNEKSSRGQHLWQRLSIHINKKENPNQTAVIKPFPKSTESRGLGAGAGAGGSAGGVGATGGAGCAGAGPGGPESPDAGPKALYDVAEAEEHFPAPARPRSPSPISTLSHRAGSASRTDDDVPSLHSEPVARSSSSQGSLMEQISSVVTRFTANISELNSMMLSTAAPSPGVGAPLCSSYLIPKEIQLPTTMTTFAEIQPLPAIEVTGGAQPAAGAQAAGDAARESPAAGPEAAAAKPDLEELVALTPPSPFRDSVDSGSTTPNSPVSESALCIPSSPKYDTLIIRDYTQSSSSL
# human mGluR1, sequence (Q13255 19-1194): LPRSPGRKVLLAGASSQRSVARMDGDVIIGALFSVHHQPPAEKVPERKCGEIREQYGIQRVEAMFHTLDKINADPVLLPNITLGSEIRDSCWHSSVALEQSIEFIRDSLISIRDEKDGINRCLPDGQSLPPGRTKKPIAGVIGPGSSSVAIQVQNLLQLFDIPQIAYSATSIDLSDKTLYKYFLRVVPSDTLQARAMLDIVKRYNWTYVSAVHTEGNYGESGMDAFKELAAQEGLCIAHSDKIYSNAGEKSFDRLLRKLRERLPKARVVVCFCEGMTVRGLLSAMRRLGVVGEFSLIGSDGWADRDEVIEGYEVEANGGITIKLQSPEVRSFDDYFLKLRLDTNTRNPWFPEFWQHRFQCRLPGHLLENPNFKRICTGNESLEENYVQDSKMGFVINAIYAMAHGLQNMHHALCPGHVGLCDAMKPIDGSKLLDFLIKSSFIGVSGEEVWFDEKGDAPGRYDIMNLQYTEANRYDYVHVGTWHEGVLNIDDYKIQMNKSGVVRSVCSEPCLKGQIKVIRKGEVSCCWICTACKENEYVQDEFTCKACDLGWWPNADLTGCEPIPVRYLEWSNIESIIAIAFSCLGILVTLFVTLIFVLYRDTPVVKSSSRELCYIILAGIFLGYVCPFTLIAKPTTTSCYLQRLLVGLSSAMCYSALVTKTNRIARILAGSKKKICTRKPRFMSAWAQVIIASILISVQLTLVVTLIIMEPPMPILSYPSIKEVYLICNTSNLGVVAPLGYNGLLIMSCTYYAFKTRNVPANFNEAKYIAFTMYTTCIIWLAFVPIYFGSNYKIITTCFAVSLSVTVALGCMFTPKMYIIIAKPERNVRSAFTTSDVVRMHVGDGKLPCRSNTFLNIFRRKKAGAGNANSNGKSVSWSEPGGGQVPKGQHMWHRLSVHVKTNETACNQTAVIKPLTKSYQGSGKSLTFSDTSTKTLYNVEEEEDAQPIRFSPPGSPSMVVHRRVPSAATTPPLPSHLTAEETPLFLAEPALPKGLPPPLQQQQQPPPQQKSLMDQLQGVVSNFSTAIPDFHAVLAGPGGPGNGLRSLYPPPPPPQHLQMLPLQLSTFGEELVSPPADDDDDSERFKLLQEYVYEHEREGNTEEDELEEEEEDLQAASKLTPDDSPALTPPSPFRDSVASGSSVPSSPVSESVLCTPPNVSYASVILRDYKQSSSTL
SMILES,IC50 (human mGluR1),IC50 (human mGluR5a receptors),inhibition at 10 µM (human mGluR5a receptors)
"CCc1cn(C2=NCC(=O)N3CCc4c(cccc4C4CCCO4)C3=C2)cn1 (racemic) [Example 111, 2-(4-ethyl-1H-imidazol-1-yl)-9-(tetrahydrofuran-2-yl)-7,8-dihydro-[1,4]diazepino[7,1-a]isoquinolin-5(4H)-one]",9300 nM,53 nM,
"CCc1cn(C2=NCC(=O)N3CCc4c(cccc4C4(O)COC4)C3=C2)cn1 [2-(4-ethyl-1H-imidazol-1-yl)-9-(3-hydroxyoxetan-3-yl)-7,8-dihydro-[1,4]diazepino[7,1-a]isoquinolin-5(4H)-one]",,,< 20%
"Cc1ccnn1C1=NCC(=O)N2CCc3c(Cl)cccc3C2=C1 [9-chloro-2-(5-methyl-1H-pyrazol-1-yl)-7,8-dihydro-[1,4]diazepino[7,1-a]isoquinolin-5(4H)-one]",,,< 20%
"COc1cccc(C2=NCC(=O)N3CCc4c(OC)cccc4C3=C2)c1 [Example 1, 9-methoxy-2-(3-methoxyphenyl)-7,8-dihydro-[1,4]diazepino[7,1-a]isoquinolin-5(4H)-one]",6400 nM,327 nM,
"O=C1CN=C(c2cccs2)C=C2c3cccc(Cl)c3CCN12 [Example 2, 9-chloro-2-(thiophen-2-yl)-7,8-dihydro-[1,4]diazepino[7,1-a]isoquinolin-5(4H)-one]",27 nM,90 nM,
"COc1cccc(C2=NCC(=O)N3CCc4c(Cl)cccc4C3=C2)c1 [Example 3, 9-chloro-2-(3-methoxyphenyl)-7,8-dihydro-[1,4]diazepino[7,1-a]isoquinolin-5(4H)-one]",585 nM,220 nM,
"O=C1CN=C(c2cccs2)C=C2c3cccc(C(F)(F)F)c3CCN12 [Example 4, 2-(thiophen-2-yl)-9-(trifluoromethyl)-7,8-dihydro-[1,4]diazepino[7,1-a]isoquinolin-5(4H)-one]",150 nM,180 nM,
"COc1cccc2c1CCN1C(=O)CN=C(c3cccs3)C=C21 [Example 5, 9-methoxy-2-(thiophen-2-yl)-7,8-dihydro-[1,4]diazepino[7,1-a]isoquinolin-5(4H)-one]",15 nM,44 nM,
"COc1cc(C2=NCC(=O)N3CCc4c(Cl)cccc4C3=C2)ccn1 [Example 6, 9-chloro-2-(2-methoxypyridin-4-yl)-7,8-dihydro-[1,4]diazepino[7,1-a]isoquinolin-5(4H)-one]",3050 nM,75 nM,
"COc1cccc2c1CCN1C(=O)CN=C(c3ccc(C)o3)C=C21 [Example 7, 9-methoxy-2-(5-methylfuran-2-yl)-7,8-dihydro-[1,4]diazepino[7,1-a]isoquinolin-5(4H)-one]",210 nM,24 nM,
"COc1cc(C2=NCC(=O)N3CCc4c(OC)cccc4C3=C2)ccn1 [Example 8, 9-methoxy-2-(2-methoxypyridin-4-yl)-7,8-dihydro-[1,4]diazepino[7,1-a]isoquinolin-5(4H)-one]",4900 nM,22 nM,
"COc1cccc(C2=NCC(=O)N3CCc4c(OC)cccc4C3=C2)n1 [Example 9, 9-methoxy-2-(6-methoxypyridin-2-yl)-7,8-dihydro-[1,4]diazepino[7,1-a]isoquinolin-5(4H)-one]",> 10000 nM,600 nM,
"CCc1cc(C2=NCC(=O)N3CCc4c(OC)cccc4C3=C2)ccn1 [Example 10, 2-(2-ethylpyridin-4-yl)-9-methoxy-7,8-dihydro-[1,4]diazepino[7,1-a]isoquinolin-5(4H)-one]",940 nM,345 nM,
"COc1cccc2c1CCN1C(=O)CN=C(c3ccn(C)n3)C=C21 [Example 11, 9-methoxy-2-(1-methyl-1H-pyrazol-3-yl)-7,8-dihydro-[1,4]diazepino[7,1-a]isoquinolin-5(4H)-one]",690 nM,170 nM,
"O=C1CN=C(n2cnc(C3CCC3)n2)C=C2c3cccc(-c4ccc(F)nc4)c3CCN12 [Example 99h, 2-(3-cyclobutyl-1H-1,2,4-triazol-1-yl)-9-(6-fluoropyridin-3-yl)-7,8-dihydro-[1,4]diazepino[7,1-a]isoquinolin-5(4H)-one]",,38 nM,
